This note sets out measurements from US20020091095A1, “Modulation of Fas and FasL expression” (priority 1999, published 2002).

For assay [1], the system named is Fas. Kind of assay: Fas expression at the cell surface by flow cytometry, T-24 cells. The conditions noted are these: T-24 bladder cancer cells, 100 μg/ml sequence, 48 h, treated vs control cells. In kind it is cell-based, human. The procedure:
(§1) Cancer cells and PBMCs were seeded in 6 well flat-bottom microplates and were maintained at 37° C. in a 5% CO2 atmosphere. Unless stated otherwise, 2×10^5 cells/ml were incubated for 48 h with 0 μg/ml (control) or 100 μg/ml ([…]) (treated) of the sequences.
(§2) Fas and FasL expression were measured by flow cytometry using anti-Fas FITC-conjugated monoclonal antibodies and anti-FasL PE-conjugated monoclonal antibodies in a FACScalibur Flow Cytometer (Becton Dickinson, San Jose, Calif., USA) using the CELLQuest program (Becton Dickinson).
(§3) Results are expressed as percentage (%) increase in the expression of Fas and of FasL measured on treated cells compared to control cells.
(§4) T-24 bladder cancer cells are a p53 mutated human cell line T-24 cells (1.0×10^5 cells/ml) were incubated with the 6 base sequences shown in Table 4.
(Flow cytometry measures light scatter and fluorescence of single cells or particles in a stream.)

The subject of assay [2] is Fas. Nature of the assay: Fas expression at the cell surface by flow cytometry, LNCaP cells. In kind it is cell-based, human. As to conditions: LNCaP prostate cancer cells, 100 μg/ml sequence, 48 h, treated vs control cells. The procedure: as §1, §2, §3
(§5) LNCaP prostate cancer cells are a TGF-beta 1 receptor negative, […], metastatic human solid tumor model.

In assay [3] the test system is FasL. Kind of assay: FasL expression at the cell surface by flow cytometry, PBMCs. In kind it is cell-based, human. As to conditions: 100 μg/ml sequence, 48 h, treated vs control cells. The procedure: (§6) Peripheral blood mononuclear cells (hereinafter, “PBMCs”) were isolated from human blood by Ficoll-Hypaque (Amersham Pharmacia Biotech, Baie d'Urfée, Québec, Canada) density gradient centrifugation.
as §1, §2, §3

Assay [4] relates to Fas. Nature of the assay: Fas expression at the cell surface by flow cytometry, UMUC-3 cells. In kind it is cell-based, human. As to conditions: UMUC-3 bladder cancer cells, 100 μg/ml sequence, 48 h, treated vs control cells. The procedure: as §1, §2, §3
(§7) UMUC-3 bladder cancer cells are a P-glycoprotein overexpressing human cell line.

The subject of assay [5] is FasL. Nature of the assay: FasL expression at the cell surface by flow cytometry, LNCaP cells. In kind it is cell-based, human. As to conditions: LNCaP prostate cancer cells, 100 μg/ml sequence, 48 h, treated vs control cells. Here is the method: as §1, §2, §3, §5
Assay [6] deals with FasL. Nature of the assay: FasL expression at the cell surface by flow cytometry, T-24 cells. In kind it is cell-based, human. As to conditions: T-24 bladder cancer cells, 100 μg/ml sequence, 48 h, treated vs control cells. The procedure: as §1, §2, §3, §4
Assay [7] deals with FasL. Kind of assay: FasL expression at the cell surface by flow cytometry, OVCAR-3 cells. In kind it is cell-based, human. As to conditions: OVCAR-3 ovarian cancer cells, 100 μg/ml sequence, 48 h, treated vs control cells. Here is the method: as §1, §2, §3
(§8) OVCAR-3 ovarian cancer cells are a p53 mutated, p21/waf-1/Cip deleted, metastatic human solid tumor model.

Assay [8] relates to Fas. Kind of assay: Fas expression at the cell surface by flow cytometry, SK-OV-3 cells. In kind it is cell-based, human. The conditions noted are these: SK-OV-3 ovarian cancer cells, 100 μg/ml sequence, 48 h, treated vs control cells. The procedure:
as §1, §2, §3
(§9) SK-OV-3 ovarian cancer cells are a p53 mutated, p21/waf-1/Cip deleted, p15^ink4B,p16^ink4 deleted metastatic human solid tumor model.

Assay [9] has as its system FasL. Kind of assay: FasL expression at the cell surface by flow cytometry, SK-OV-3 cells. As to conditions: SK-OV-3 ovarian cancer cells, 100 μg/ml sequence, 48 h, treated vs control cells. In kind it is cell-based, human. The procedure:
as §1, §2, §3, §9

Assay [10] deals with FasL. Nature of the assay: FasL expression at the cell surface by flow cytometry, Jurkat cells. As to conditions: Jurkat human leukemia T cells, 100 μg/ml sequence, 48 h, treated vs control cells. In kind it is cell-based. The procedure:
as §1, §2, §3
(§10) Jurkat human leukemia T cells are an atypical multi-drug resistant human suspension tumor cell model.

For assay [11], the system named is FasL. Kind of assay: FasL expression at the cell surface by flow cytometry, MCF-7 cells. As to conditions: MCF-7 breast cancer cells, 100 μg/ml sequence, 48 h, treated vs control cells. In kind it is cell-based, human. Here is the method: as §1, §2, §3
(§11) MCF-7 human breast cancer cells are a caspase-3 negative, estrogen-dependent human solid tumor model.

The subject of assay [12] is FasL. Kind of assay: FasL expression at the cell surface by flow cytometry, UMUC-3 cells. In kind it is cell-based, human. As to conditions: UMUC-3 bladder cancer cells, 100 μg/ml sequence, 48 h, treated vs control cells. The procedure:
as §1, §2, §3, §7

The test system of assay [13] is Fas. Nature of the assay: Fas expression at the cell surface by flow cytometry, PBMCs. In kind it is cell-based, human. As to conditions: 100 μg/ml sequence, 48 h, treated vs control cells. The procedure: as §6, §1, §2, §3
Assay [14] relates to Fas. Kind of assay: Fas expression at the cell surface by flow cytometry, MCF-7 cells. In kind it is cell-based, human. The conditions noted are these: MCF-7 breast cancer cells, 100 μg/ml sequence, 48 h, treated vs control cells. The procedure: as §1, §2, §3, §11
Assay [15] concerns Fas. Nature of the assay: Fas expression at the cell surface by flow cytometry, OVCAR-3 cells. In kind it is cell-based, human. The conditions noted are these: OVCAR-3 ovarian cancer cells, 100 μg/ml sequence, 48 h, treated vs control cells. The procedure: as §1, §2, §3, §8
Assay [16] has as its system Fas. Nature of the assay: Fas expression at the cell surface by flow cytometry, Jurkat cells. In kind it is cell-based. The conditions noted are these: Jurkat human leukemia T cells, 100 μg/ml sequence, 48 h, treated vs control cells. The procedure:
as §1, §2, §3, §10

As for TGTGTG [SEQ ID NO:1], the “% INCREASE Fas” value amounted to 84% in the assay on Fas [1]; 29% in the assay on Fas [2]; 72% in the assay on Fas [4]; 49% in the assay with Fas [8]; 126% with Fas [13]; 122% in the assay with Fas [14]. Besides, the “% INCREASE Fas” value in the assay with Fas [15] came to 64%; in the assay with Fas [16], 52%. In addition, the “% INCREASE FasL” value in the assay with FasL [3] was 260%; with FasL [5], 40%; with FasL [6], 213%; in the assay on FasL [7], 70%; in the assay with FasL [9], 37%; in the assay with FasL [10], 93%. For the same sequence, the “% INCREASE FasL” value was 121% in the assay on FasL [11] and 112% with FasL [12].
Consider TTGTTT [SEQ ID NO:6], for which the “% INCREASE Fas” value in the assay on Fas [1] turned out to be 116%; in the assay on Fas [2], 40%; in the assay with Fas [4], 57%; in the assay with Fas [8], 41%; with Fas [13], 338%; in the assay with Fas [14], 143%. The figures for the “% INCREASE Fas” value in the assay with Fas [15] and with Fas [16] were 65% and 126%, respectively. Besides, the “% INCREASE FasL” value was found to be 441% with FasL [3]; 73% in the assay on FasL [5]; 152% with FasL [6]; 98% in the assay on FasL [7]; 24% in the assay with FasL [9]; 140% in the assay with FasL [10]. Also, the “% INCREASE FasL” value in the assay with FasL [11] worked out at 159%; in the assay with FasL [12], 132%.
As for TTTGTT [SEQ ID NO:3], the “% INCREASE Fas” value with Fas [1] came out at 279%; in the assay on Fas [2], 199%; in the assay on Fas [4], 108%; with Fas [8], 108%; in the assay on Fas [13] it was 1165%; in the assay with Fas [14] it was 361%. For the same sequence, the “% INCREASE Fas” value is 193% in the assay on Fas [15] and 258% with Fas [16]. Further, the “% INCREASE FasL” value worked out at 1528% with FasL [3]; 344% in the assay with FasL [5]; 549% in the assay with FasL [6]; 341% with FasL [7]; 103% in the assay with FasL [9]; 497% with FasL [10]. The “% INCREASE FasL” value in the assay with FasL [11] came to 528%; with FasL [12], 231%.
